Laboratory results taken from patent US20120270929A1, “MODULATION OF TTC39 EXPRESSION TO INCREASE HDL” (ISIS Pharmaceuticals, Inc., priority 2009, published 2012).
Oligonucleotides are written 5' to 3', each unit as a sugar letter and its base; * is a phosphorothioate linkage, no mark a phosphodiester; rarer units and linkages stand in square brackets, end groups in braces. Plain capitals give the bases only. e = 2'-O-(2-methoxyethyl) (MOE); [5mC] = 5-methylcytosine; d = 2'-deoxy (DNA)

What was measured:
[1] = system: murine TTC39B mRNA; assay: Dose-dependent antisense inhibition of murine TTC39B in mouse primary hepatocytes (Example 2); assay type: cell-based; conditions: cytofectin, ~16 h
Protocol: Cells were plated at a density of 10,000 cells per well and transfected using cytofectin reagent with 25 nM, 50 nM, 100 nM, and 200 nM concentrations of antisense oligonucleotide, as specified in Table 3. After a treatment period of approximately 16 hours, RNA was isolated from the cells and TTC39B mRNA levels were measured by quantitative real-time PCR. Murine primer probe set mTtc39b_LTS00287 (forward sequence: […], incorporated herein as SEQ ID NO: 94; reverse sequence: […], incorporated herein as SEQ ID NO: 95; probe sequence: […], incorporated herein as SEQ ID NO: 96) was used to measure mRNA levels. TTC39B mRNA levels were adjusted according to total RNA content, as measured by RIBOGREEN®. Results are presented as percent inhibition of TTC39B, relative to untreated control cells.

[2] = system: murine TTC39B mRNA; assay: Antisense inhibition of murine TTC39B in mouse primary hepatocytes, single dose; assay type: cell-based; conditions: 100 nM, cytofectin, ~24 h, vs untreated control
Protocol: Antisense oligonucleotides targeted to a TTC39B nucleic acid were tested for their effects on TTC39B mRNA in vitro. Cultured mouse primary hepatocytes at a density of 10,000 cells per well were transfected using cytofectin reagent with 100 nM antisense oligonucleotide. After a treatment period of approximately 24 hours, RNA was isolated from the cells and TTC39B mRNA levels were measured by quantitative real-time PCR. TTC39B mRNA levels were adjusted according to total RNA content, as measured by RIBOGREEN®. Results are presented as percent inhibition of TTC39B, relative to untreated control cells.
The chimeric antisense oligonucleotides in Tables 1 and 2 were designed as 5-10-5 MOE gapmers. The gapmers are 20 nucleotides in length, wherein the central gap segment is comprised of 10 2′-deoxynucleotides and is flanked on both sides (in the 5′ and 3′ directions) by wings comprising 5 nucleotides each. Each nucleotide in the 5′ wing segment and each nucleotide in the 3′ wing segment has a 2′-MOE modification. The internucleoside linkages throughout each gapmer are phosphorothioate (P═S) linkages. All cytosine residues throughout each gapmer are 5-methylcytosines. “Target start site” indicates the 5′-most nucleotide to which the gapmer is targeted. “Target stop site” indicates the 3′-most nucleotide to which the gapmer is targeted. Each gapmer listed in Table 1 is targeted to SEQ ID NO: 6 (GENBANK Accession No. NM_027238.2) and each gapmer listed in Table 2 is targeted to SEQ ID NO: 10 (the complement of GENBANK Accession No. NT—039260.7 truncated at nucleotides 22491001 to 22601000), SEQ ID NO: 11 (GENBANK Accession No. BY244623.1), SEQ ID NO: 12 (GENBANK Accession No. BY260936), SEQ ID NO: 13 (GENBANK Accession No. BM935568.1) or SEQ ID NO: 14 (GENBANK Accession No. BY728780.1).

[3] = gapmers targeted to SEQ ID NO: 6
[4] = gapmers targeted to SEQ ID NO: 10-14

GGTGGAGTCTGGCCCTCAGC (antisense eG*eG*eT*eG*eG*dA*dG*dT*d[5mC]*dT*dG*dG*d[5mC]*d[5mC]*d[5mC]*eT*e[5mC]*eA*eG*e[5mC]) [ISIS 447142]
percent inhibition of TTC39B mRNA ([1]; 25 nM): 36% | percent inhibition of TTC39B mRNA ([1]; 50 nM): 64% | percent inhibition of TTC39B mRNA ([1]; 100 nM): 85% | percent inhibition of TTC39B mRNA ([1]; 200 nM): 91% | % inhibition of murine TTC39B mRNA [2, 3]: 66%

TCGAAATGTTTCTTGAGCCT (antisense eT*e[5mC]*eG*eA*eA*dA*dT*dG*dT*dT*dT*d[5mC]*dT*dT*dG*eA*eG*e[5mC]*e[5mC]*eT) [ISIS 447119]
percent inhibition of TTC39B mRNA ([1]; 25 nM): 28% | percent inhibition of TTC39B mRNA ([1]; 50 nM): 52% | percent inhibition of TTC39B mRNA ([1]; 100 nM): 80% | percent inhibition of TTC39B mRNA ([1]; 200 nM): 77% | % inhibition of murine TTC39B mRNA [2, 3]: 65%

GGACTGCCTGCCATGGGTGC (antisense eG*eG*eA*e[5mC]*eT*dG*d[5mC]*d[5mC]*dT*dG*d[5mC]*d[5mC]*dA*dT*dG*eG*eG*eT*eG*e[5mC]) [ISIS 447146]
percent inhibition of TTC39B mRNA ([1]; 25 nM): 44% | percent inhibition of TTC39B mRNA ([1]; 50 nM): 55% | percent inhibition of TTC39B mRNA ([1]; 100 nM): 78% | percent inhibition of TTC39B mRNA ([1]; 200 nM): 89% | % inhibition of murine TTC39B mRNA [2, 3]: 69%

GAGTCCACCTTTGATGAAGT (antisense eG*eA*eG*eT*e[5mC]*d[5mC]*dA*d[5mC]*d[5mC]*dT*dT*dT*dG*dA*dT*eG*eA*eA*eG*eT) [ISIS 447110]
percent inhibition of TTC39B mRNA ([1]; 25 nM): 39% | percent inhibition of TTC39B mRNA ([1]; 50 nM): 52% | percent inhibition of TTC39B mRNA ([1]; 100 nM): 77% | percent inhibition of TTC39B mRNA ([1]; 200 nM): 87% | % inhibition of murine TTC39B mRNA [2, 3]: 69%

GACTTTTAATTCAAAGTCCT (antisense eG*eA*e[5mC]*eT*eT*dT*dT*dA*dA*dT*dT*d[5mC]*dA*dA*dA*eG*eT*e[5mC]*e[5mC]*eT) [ISIS 447153]
% inhibition of murine TTC39B mRNA [2, 3]: 58%

AAAATATCTCTGAAGTTTAA (antisense eA*eA*eA*eA*eT*dA*dT*d[5mC]*dT*d[5mC]*dT*dG*dA*dA*dG*eT*eT*eT*eA*eA) [ISIS 447136]
% inhibition of murine TTC39B mRNA [2, 3]: 24%

CCTGATAAATCACAAATGCT (antisense e[5mC]*e[5mC]*eT*eG*eA*dT*dA*dA*dA*dT*d[5mC]*dA*d[5mC]*dA*dA*eA*eT*eG*e[5mC]*eT) [ISIS 447150]
% inhibition of murine TTC39B mRNA [2, 3]: 46%

ACAAAGTGAAAGCCGCTGGT (antisense eA*e[5mC]*eA*eA*eA*dG*dT*dG*dA*dA*dA*dG*d[5mC]*d[5mC]*dG*e[5mC]*eT*eG*eG*eT) [ISIS 447103]
% inhibition of murine TTC39B mRNA [2, 3]: 64%

TGTCCGATGGAGATTGTTAA (antisense eT*eG*eT*e[5mC]*e[5mC]*dG*dA*dT*dG*dG*dA*dG*dA*dT*dT*eG*eT*eT*eA*eA) [ISIS 447164]
% inhibition of murine TTC39B mRNA [2, 4]: 0%

ATCATATTTTCATCCTGAAA (antisense eA*eT*e[5mC]*eA*eT*dA*dT*dT*dT*dT*d[5mC]*dA*dT*d[5mC]*d[5mC]*eT*eG*eA*eA*eA) [ISIS 447170]
% inhibition of murine TTC39B mRNA [2, 4]: 35%

CATCATTTCCAGGGCTGGCA (antisense e[5mC]*eA*eT*e[5mC]*eA*dT*dT*dT*d[5mC]*d[5mC]*dA*dG*dG*dG*d[5mC]*eT*eG*eG*e[5mC]*eA) [ISIS 447125]
% inhibition of murine TTC39B mRNA [2, 3]: 54%

GGCAGAGTATAAGAATTTCT (antisense eG*eG*e[5mC]*eA*eG*dA*dG*dT*dA*dT*dA*dA*dG*dA*dA*eT*eT*eT*e[5mC]*eT) [ISIS 447133]
% inhibition of murine TTC39B mRNA [2, 3]: 56%

TTCCAGCTCGGCTGCGCCAC (antisense eT*eT*e[5mC]*e[5mC]*eA*dG*d[5mC]*dT*d[5mC]*dG*dG*d[5mC]*dT*dG*d[5mC]*eG*e[5mC]*e[5mC]*eA*e[5mC]) [ISIS 447157]
% inhibition of murine TTC39B mRNA [2, 4]: 21%

TGTTTCCAGAAAATCCAATA (antisense eT*eG*eT*eT*eT*d[5mC]*d[5mC]*dA*dG*dA*dA*dA*dA*dT*d[5mC]*e[5mC]*eA*eA*eT*eA) [ISIS 447115]
% inhibition of murine TTC39B mRNA [2, 3]: 56%

TCCAGATCATTATGTTTACA (eT*e[5mC]*e[5mC]*eA*eG*dA*dT*d[5mC]*dA*dT*dT*dA*dT*dG*dT*eT*eT*eA*e[5mC]*eA; antisense) [ISIS 447174]
% inhibition of murine TTC39B mRNA [2, 4]: 50%

GCGCCTTCCCGGAGCTGCAG (antisense eG*e[5mC]*eG*e[5mC]*e[5mC]*dT*dT*d[5mC]*d[5mC]*d[5mC]*dG*dG*dA*dG*d[5mC]*eT*eG*e[5mC]*eA*eG) [ISIS 447116]
% inhibition of murine TTC39B mRNA [2, 3]: 56%
